Experiments:
[1] = target: T1, Sodium channel protein type 9 subunit alpha (Homo sapiens, UniProt Q15858); assay: Inhibitory constant against voltage-gated sodium channel Nav1.7 in electrophysiology assays (EP); assay type: functional
[2] = target: T1, Sodium channel protein type 9 subunit alpha; assay: In vitro inhibitory concentration against voltage-gated sodium channel Nav1.7 in voltage-ion-probe-reader (VIPR) assay; assay type: functional
[3] = Half life period of the compound was determined in rat; assay type: ADME; settings: in vivo
[4] = Clearance value of the compound was determined in plasma of rat; assay type: ADME, organism-based; settings: read-out: Clp
[5] = Bioavailability in rat; assay type: ADME, organism-based; settings: in vivo

T1 sequence (Q15858 whole entry): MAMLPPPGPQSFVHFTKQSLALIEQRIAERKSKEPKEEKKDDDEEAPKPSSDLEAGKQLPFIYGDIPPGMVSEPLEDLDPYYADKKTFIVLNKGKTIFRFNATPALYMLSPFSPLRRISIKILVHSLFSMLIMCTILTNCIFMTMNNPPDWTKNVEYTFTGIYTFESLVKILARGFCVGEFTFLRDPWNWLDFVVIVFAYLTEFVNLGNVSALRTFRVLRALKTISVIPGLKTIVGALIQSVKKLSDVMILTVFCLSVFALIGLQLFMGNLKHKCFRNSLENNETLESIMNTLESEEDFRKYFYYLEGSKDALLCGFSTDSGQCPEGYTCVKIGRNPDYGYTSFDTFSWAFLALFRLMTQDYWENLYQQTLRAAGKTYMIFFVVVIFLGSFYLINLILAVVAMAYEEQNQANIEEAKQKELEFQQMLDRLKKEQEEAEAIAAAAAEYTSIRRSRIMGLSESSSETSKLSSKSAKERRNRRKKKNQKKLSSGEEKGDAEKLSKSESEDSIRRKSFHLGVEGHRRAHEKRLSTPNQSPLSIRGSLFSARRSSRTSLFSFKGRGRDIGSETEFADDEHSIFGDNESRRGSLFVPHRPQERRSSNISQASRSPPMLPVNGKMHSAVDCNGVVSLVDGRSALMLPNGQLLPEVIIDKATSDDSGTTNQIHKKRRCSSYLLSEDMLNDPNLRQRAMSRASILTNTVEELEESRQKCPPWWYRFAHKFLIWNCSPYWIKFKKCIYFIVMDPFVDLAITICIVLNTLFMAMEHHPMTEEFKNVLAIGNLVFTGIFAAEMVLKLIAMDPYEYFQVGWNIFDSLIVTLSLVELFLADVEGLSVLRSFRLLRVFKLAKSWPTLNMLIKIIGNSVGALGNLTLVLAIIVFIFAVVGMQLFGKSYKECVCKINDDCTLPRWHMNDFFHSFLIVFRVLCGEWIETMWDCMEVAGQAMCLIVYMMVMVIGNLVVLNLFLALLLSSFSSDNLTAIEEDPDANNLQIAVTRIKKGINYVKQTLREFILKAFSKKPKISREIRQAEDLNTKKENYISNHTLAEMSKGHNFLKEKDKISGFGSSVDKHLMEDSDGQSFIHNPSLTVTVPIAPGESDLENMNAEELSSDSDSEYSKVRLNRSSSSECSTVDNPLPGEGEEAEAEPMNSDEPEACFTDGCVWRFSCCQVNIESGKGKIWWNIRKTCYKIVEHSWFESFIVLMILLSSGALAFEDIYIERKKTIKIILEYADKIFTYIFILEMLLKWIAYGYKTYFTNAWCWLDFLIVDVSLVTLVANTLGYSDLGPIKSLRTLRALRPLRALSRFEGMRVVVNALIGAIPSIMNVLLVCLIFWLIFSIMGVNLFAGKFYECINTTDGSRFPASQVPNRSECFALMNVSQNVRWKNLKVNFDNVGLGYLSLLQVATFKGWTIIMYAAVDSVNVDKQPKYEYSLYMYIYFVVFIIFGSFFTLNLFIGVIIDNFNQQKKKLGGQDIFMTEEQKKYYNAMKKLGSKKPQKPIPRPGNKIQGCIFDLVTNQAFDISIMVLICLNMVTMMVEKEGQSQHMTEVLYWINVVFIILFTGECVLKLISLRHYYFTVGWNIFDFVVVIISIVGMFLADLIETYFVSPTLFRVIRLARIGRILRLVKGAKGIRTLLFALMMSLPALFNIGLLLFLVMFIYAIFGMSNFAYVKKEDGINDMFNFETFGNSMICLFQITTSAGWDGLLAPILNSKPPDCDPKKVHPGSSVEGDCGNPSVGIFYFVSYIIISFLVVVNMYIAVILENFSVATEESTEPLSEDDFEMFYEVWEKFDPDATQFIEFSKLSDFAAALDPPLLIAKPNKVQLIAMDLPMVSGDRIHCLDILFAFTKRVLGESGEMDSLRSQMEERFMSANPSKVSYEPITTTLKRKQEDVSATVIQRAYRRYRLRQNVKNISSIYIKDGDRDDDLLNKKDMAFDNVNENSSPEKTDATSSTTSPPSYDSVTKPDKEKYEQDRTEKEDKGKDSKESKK

Structure (SMILES) | Ki [1] [nM] | IC50 [2] [nM] | half-life [3] [min] | clearance [4] [mL/min/kg] | bioavailability [5] [%]
CN(Cc1ccc(-c2ccccc2S(N)(=O)=O)cc1)C(=O)CCC(=O)NCc1cccc(OC(F)(F)F)c1 | – | – | 30 | 141 | 27
CC(C(=O)NCc1ccc(-c2ccccc2S(N)(=O)=O)cc1)C(C)C(=O)NCc1ccc(-c2cccs2)s1 (stereo not drawn) | – | 1400 | – | – | –
NS(=O)(=O)c1ccccc1-c1ccc(CNC(=O)c2cccc(C(=O)NCc3ccc(-c4cccs4)s3)c2)cc1 | 6200 | 2900 | – | – | –
NS(=O)(=O)c1ccccc1-c1ccc(CNC(=O)CCCC(=O)NCc2ccc(-c3cccs3)s2)cc1 | – | 3200 | – | – | –
NS(=O)(=O)c1ccccc1-c1ccc(CNC(=O)c2ccccc2C(=O)NCc2ccc(-c3cccs3)s2)cc1 | 140 | 2200 | – | – | –
CC(C)(CC(=O)NCc1ccc(-c2ccccc2S(N)(=O)=O)cc1)C(=O)NCc1ccc(-c2cccs2)s1 | – | 2300 | – | – | –
CC(NC(=O)[C@H]1CCC[C@@H]1C(=O)NCc1ccc(-c2ccccc2S(N)(=O)=O)cc1)c1ccc(-c2cccs2)s1 (mixture of isomers) | – | 10000 | – | – | –
CC(NC(=O)[C@H]1CCC[C@@H]1C(=O)NCc1ccc(-c2cccs2)s1)c1ccc(-c2ccccc2S(N)(=O)=O)cc1 (mixture of isomers) | 50 | 1400 | – | – | –
CC(NC(=O)[C@H]1CCC[C@@H]1C(=O)N(C)Cc1ccc(-c2ccccc2S(N)(=O)=O)cc1)c1ccc(-c2cccs2)s1 (mixture of isomers) | – | 10000 | – | – | –
CN(Cc1ccc(-c2cccs2)s1)C(=O)[C@H]1CCC[C@@H]1C(=O)NCc1ccc(-c2ccccc2S(N)(=O)=O)cc1 (racemic) | – | 5300 | – | – | –
CN(Cc1ccc(-c2ccccc2S(N)(=O)=O)cc1)C(=O)[C@H]1CCC[C@@H]1C(=O)NCc1ccc(C(F)(F)F)cc1 (racemic) | 280 | 2500 | – | – | –
CN(Cc1ccc(-c2ccccc2S(N)(=O)=O)cc1)C(=O)[C@H]1CCC[C@@H]1C(=O)N(C)Cc1ccc(-c2cccs2)s1 (racemic) | – | > 10000 | – | – | –
NS(=O)(=O)c1ccccc1-c1ccc(CNC(=O)[C@H]2CCC[C@@H]2C(=O)NCc2ccccc2)cc1 (racemic) | – | 5000 | – | – | –
CN(Cc1ccc(-c2ccccc2S(N)(=O)=O)cc1)C(=O)[C@H]1CCC[C@@H]1C(=O)NCc1ccccc1 (racemic) | – | > 10000 | – | – | –
Cc1ccccc1-c1ccc(CNC(=O)[C@H]2CCC[C@@H]2C(=O)NCc2ccc(-c3ccccc3S(N)(=O)=O)cc2)cc1 (racemic) | 370 | 2100 | – | – | –
CN(Cc1ccc(-c2ccccc2S(N)(=O)=O)cc1)C(=O)[C@H]1CCC[C@@H]1C(=O)NCc1cccc(OC(F)(F)F)c1 (racemic) | 530 | 1300 | – | – | –
COc1ccc(CNC(=O)[C@H]2CCC[C@@H]2C(=O)NCc2ccc(-c3ccccc3S(N)(=O)=O)cc2)cc1 (racemic) | 12000 | 5000 | – | – | –
NS(=O)(=O)c1ccccc1-c1ccc(CNC(=O)[C@H]2CCC[C@@H]2C(=O)NCc2ccc([N+](=O)[O-])cc2)cc1 (racemic) | 2000 | 2800 | – | – | –
NS(=O)(=O)c1ccccc1-c1ccc(CNC(=O)[C@H]2CCCC[C@@H]2C(=O)NCc2ccc(-c3cccs3)s2)cc1 (racemic) | 2100 | 1400 | – | – | –
NS(=O)(=O)c1ccccc1-c1ccc(CNC(=O)[C@H]2CCC[C@H]2C(=O)NCc2ccc(-c3cccs3)s2)cc1 (racemic) | 670 | 1600 | – | – | –
COc1ccc(CNC(=O)[C@H]2CCC[C@@H]2C(=O)N(C)Cc2ccc(-c3ccccc3S(N)(=O)=O)cc2)cc1 (racemic) | 2100 | 10000 | – | – | –

More lines, now with the values ahead:

Ki [1] [nM] | IC50 [2] [nM] | half-life [3] [min] | clearance [4] [mL/min/kg] | bioavailability [5] [%] | Structure (SMILES)
410 | 520 | – | – | – | NS(=O)(=O)c1ccccc1-c1ccc(CNC(=O)/C=C\C(=O)NCc2ccc(-c3cccs3)s2)cc1
– | 860 | – | – | – | NS(=O)(=O)c1ccccc1-c1ccc(CNC(=O)CC(=O)NCc2ccc(-c3cccs3)s2)cc1
150 | 150 | 30 | 68 | 1.9 | NS(=O)(=O)c1ccccc1-c1ccc(CNC(=O)CCC(=O)NCc2ccc(-c3cccs3)s2)cc1
60 | 370 | 18 | 39 | 1.2 | NS(=O)(=O)c1ccccc1-c1ccc(CNC(=O)[C@H]2CCC[C@@H]2C(=O)NCc2ccc(-c3cccs3)s2)cc1 (racemic)
– | 1100 | – | – | – | NS(=O)(=O)c1ccccc1-c1ccc(CNC(=O)[C@H]2CCC[C@@H]2C(=O)NCc2cccc(OC(F)(F)F)c2)cc1 (racemic)
– | 210 | – | – | – | NS(=O)(=O)c1ccccc1-c1ccc(CNC(=O)[C@H]2CC[C@@H]2C(=O)NCc2ccc(-c3cccs3)s2)cc1 (racemic)
510 | 370 | – | – | – | NS(=O)(=O)c1ccccc1-c1ccc(CNC(=O)[C@H]2CCC[C@@H]2C(=O)NCc2ccc(-c3ccccc3C(F)(F)F)cc2)cc1 (racemic)
360 | 300 | – | – | – | NS(=O)(=O)c1ccccc1-c1ccc(CNC(=O)[C@H]2CCC[C@@H]2C(=O)NCc2ccc(OC(F)(F)F)cc2)cc1 (racemic)
690 | 660 | – | – | – | COc1ccccc1-c1ccc(CNC(=O)[C@H]2CCC[C@@H]2C(=O)NCc2ccc(-c3ccccc3S(N)(=O)=O)cc2)cc1 (racemic)
5700 | 840 | – | – | – | C=C1[C@H](C(=O)NCc2ccc(-c3ccccc3S(N)(=O)=O)cc2)[C@H]1C(=O)NCc1ccc(-c2cccs2)s1 (racemic)
– | 760 | 72 | 13 | 3.3 | CN(Cc1ccc(-c2ccccc2S(N)(=O)=O)cc1)C(=O)[C@H]1CCC[C@@H]1C(=O)NCc1ccc(-c2cccs2)s1 (racemic)
210 | 830 | 58.8 | 14 | 44 | CN(Cc1ccc(-c2ccccc2S(N)(=O)=O)cc1)C(=O)[C@H]1CCC[C@@H]1C(=O)NCc1ccc(OC(F)(F)F)cc1 (racemic)
30 | 660 | – | – | – | NS(=O)(=O)c1ccccc1-c1ccc(CNC(=O)[C@H]2CCC[C@@H]2C(=O)NCc2ccc(-c3ccccc3)cc2)cc1 (racemic)
